System: patients presenting with acute pain from suspected renal colic
Assay: Clinical Study A: analgesic efficacy and safety of cizolirtine citrate versus sodium metamizol, single intravenous dose
Assay type: in vivo, human
Conditions: for proportion of patients showing complete pain relief / proportion of patients showing satisfactory pain relief (decrease of pain intensity ≧50%): VAS at t+30 min; for Pain in the VAS at t + 30 min (LSM [SEM]), primary efficacy endpoint: per protocol population, 100 mm VAS, 30 min after start of single iv infusion (350 mg cizolirtine citrate or 2,500 mg sodium metamizol), adjusted means; for number of adverse events: per treatment group (32 randomized each), vomits and one episode of fever, all mild or moderate, none serious
Method: Objectives: to compare the analgesic efficacy and safety of cizolirtine citrate, an inhibitor of the release of the substance P, versus sodium metamizol to treat acute pain. Method: sixty four patients presenting with acute pain from suspected renal colic were randomized to a single intravenous dose of either 350 mg of cizolirtine citrate or 2,500 mg of sodium metamizol. Pain was assessed throughout 6 hours by means of visual analogical (VAS) and categorical scales. Results: renal colic was confirmed in all patients randomized. After 30 minutes, pain adjusted mean scores (100 mm VAS) were (LSM±SEM) 39.203±4.4 mm and 30.155±4.2 mm. In the cizolirtine and metamizol groups, respectively (p=0.1203). […] However, efficacy was lower than that of the comparator, an established treatment.
Study population: Subjects of either sex aged between 18 and 65 years old suffering moderate to severe pain due to a suspected renal colic starting within previous 24 hour and having a urine dipstick test positive for haematuria. Since this was an exploratory pilot phase II study, a formal sample size calculation was not performed. Moreover, no previous information regarding a comparison between the effects of sodium metamizol and placebo as analgesics for the management of renal colic could be found. Therefore, a minimum effect size to establish a non-inferiority margin was not be established. Nevertheless, to detect a difference of at least 25 mm in pain intensity measured with the VAS assuming a common standard deviation of 36.1 by means of a one-sided t test, 26 patients per group were necessary. Considering a dropout rate of 20%, 64 patients were recruited in the study
Study treatments: Either one single 350 mg dose of cizolirtine citrate or one single 2,500 mg dose of sodium metamizol by slow intravenous infusion in 15 minutes in a double-blind and randomized fashion and in a 1:1 proportion. Rescue doses of butorphanol were given as needed but were not allowed during the first 30 minutes.
Measurements: Patients ranked their pain intensity on both a visual analogical scale (VAS) and a verbal categorical scale at baseline and 15, 30 and 45 minutes and 1, 2, 3, 4, […] after receiving the study drug. Vital signs were determined also at 15, 30 and 45 minutes and at 1 and 6 hours. Active questioning for adverse events since receiving study medication was done after 2 hours. Confirmatory diagnosis of an ureteral stone had to be established before the end of the study.
Primary endpoint: mean pain intensity as determined by the VAS 30 minutes after the start of study drug administration (t+30 min).
Statistics: Demographic and baseline continuous variables values were compared between treatment groups by means of a t test. Primary efficacy analyses were performed in the per protocol population. An analysis of covariance model with the factors treatment, centre and the treatment by centre interaction and considering the baseline value as a covariate was used or the comparison between the groups. In addition, the bilateral 95% confidence interval was calculated for the difference between treatments.
The proportions of patients with complete and satisfactory pain relief between treatments at t+30 min were compared between treatment groups by means of a chi-square test and also the bilateral 95% confidence intervals for the differences were calculated. The time-treatment variables were evaluated by means of the Kaplan-Meier method and the log-rank test was used to compare the treatment groups, pain intensity differences as determined by means of the visual analogical scale (APID), pain intensity differences as determined by means of the categorical scale (CPID) and relief of pain as determined by means of the categorical scale on pain relief (PAR) from baseline to t+30 min were compared between treatment groups by means of a repeated measures analysis of variance. […]

[1] = 30 min after start of single iv dose, versus baseline

SMILES | mean decrease in pain intensity (VAS) at t+30 min [1] [%] | mean reductions in pain intensity determined by the VAS at t+30 min [1] [mm] | proportion of patients showing complete pain relief [%] | proportion of patients showing satisfactory pain relief (decrease of pain intensity ≧50%) [%] | Pain in the VAS at t + 30 min (LSM [SEM]), primary efficacy endpoint [mm] | Pain in the VAS at t + 30 min (LSM [SEM]), primary efficacy endpoint (listed as metamizol) [mm] | number of adverse events | onset of analgesia relative to comparator (time-curves APID, CPID, PAR) (difference disappears after 2 hours)
Cc1c(N(C)CS(=O)(=O)[O-])c(=O)n(-c2ccccc2)n1C.[Na+] [Metamizol, sodium metamizol] | 69.1 | 57.1 | 56.3 | 75.0 | 30.155 | 30.155±4.2 | 3 | –
CN(C)CCO[C@H](c1ccccc1)c1ccnn1C.O=C(O)CC(O)(CC(=O)O)C(=O)O (racemic) [Cizolirtine, (±)-5-{α-[2-(dimethylamino)ethoxy]benzyl}-1-methyl-1H-pirazole citrate] | 57.2 | – | 48.4 | 64.5 | 39.203±4.4 | – | 3 | deferred with respect to that provided by metamizol
